According to patent US8921267B2, “Safening 6-(trisubstituted phenyl)-4-amino-2-pyridinecarboxylate herbicide injury on cereal crops” (Dow AgroSciences LLC, priority 2008, dated 2014):

Legend:
Format in all cases: in vivo
[1] = test system: corn poppy (Papaver rhoeas L; PAPRH); test: Postemergence herbicidal activity, greenhouse, visual injury: corn poppy; conditions: for PAPRH Ob: applied alone
Procedure: (§1) Evaluation of Postemergence Herbicidal Safening in Cereal Crops
(§2) Seeds of the desired test plant species were planted in Sun Gro MetroMix® 306 planting mixture, which typically has a pH of 6.0 to 6.8 and an organic matter content of about 30 percent, in plastic pots with a surface area of 103.2 square centimeters (cm^2). When required to ensure good germination and healthy plants, a fungicide treatment and/or other chemical or physical treatment was applied. The plants were grown for 7-36 days (d) in a greenhouse with an approximate 14-hour (h) photoperiod which was maintained at about 18° C. during the day and 17° C. during the night. Nutrients and water were added on a regular basis and supplemental lighting was provided with overhead metal halide 1000-Watt lamps as necessary. The plants were employed for testing when they reached the second or third true leaf stage.
(§3) Weighed amounts of esters (methyl) or salts (TEA [triethylammonium], K [potassium]) of 4-amino-3-chloro-6-(4-chloro-2-fluoro-3-methoxyphenyl)pyridine-2-carboxylic acid (Compound 1) were dissolved in a volume of 97:3 volume/volume (v/v) acetone/dimethylsulfoxide (DMSO) to obtain stock solutions. […] The concentrated stock solutions were diluted with an aqueous mixture of 1.5% v/v of Agri-dex crop oil concentrate to provide the appropriate application rates. Compound requirements are based upon a 12 mL application volume at a rate of 187 liters per hectare (L/ha). Stocks solutions of the safeners were prepared following the same procedure. Spray solutions of the safeners and experimental compound mixtures were prepared by adding the stock solutions to the appropriate amount of dilution solution to form a 12 mL spray solution with active ingredients in two-way combinations. Formulated compounds were applied to the plant material with an overhead Mandel track sprayer equipped with 8002E nozzles calibrated to deliver 187 L/ha over an application area of 0.503 square meters (m^2) at a spray height of 18 inches (43 centimeters (cm)) above average plant canopy. Control plants were sprayed in the same manner with the solvent blank.
(§4) The treated plants and control plants were placed in a greenhouse as described above and watered by sub-irrigation to prevent wash-off of the test compounds. After 20-22 d, the condition of the test plants as compared with that of the control plants was determined visually and scored on a scale of 0 to 100 percent where 0 corresponds to no injury and 100 corresponds to complete kill.
(§5) Colby's equation was used to determine the herbicidal effects expected from the mixtures (Colby, S. R. Calculation of the synergistic and antagonistic response of herbicide combinations. Weeds 1967, 15, 20-22.).
(§6) The following equation was used to calculate the expected activity of mixtures containing two active ingredients, A and B: Expected=A+B−(A×B/100)
(§7) A=observed efficacy of active ingredient A at the same concentration as used in the mixture.
(§8) B=observed efficacy of active ingredient B at the same concentration as used in the mixture.

[2] = test system: purple deadnettle (Lamium purpureum L; LAMPU); test: Postemergence herbicidal activity, greenhouse, visual injury: purple deadnettle; design: key: visual injury, 0–100%: 0 = no injury, 100 = complete kill
Procedure: as §1, §2, §3, §4, §5, §6, §7, §8

[3] = test system: cleavers (Galium aparine L; GALAP); test: Postemergence herbicidal activity, greenhouse, visual injury: cleavers; design: key: visual injury, 0–100%: 0 = no injury, 100 = complete kill; conditions: applied alone
Procedure: as §1, §2, §3, §4, §5, §6, §7, §8

[4] = test system: wild pansy (Viola tricolor L; VIOTR); test: Postemergence herbicidal activity, greenhouse, visual injury: wild pansy; design: key: visual injury, 0–100%: 0 = no injury, 100 = complete kill; conditions: applied alone
Procedure: as §1, §2, §3, §4, §5, §6, §7, §8

[5] = test system: barley (Hordeum vulgare L; HORVS); test: Postemergence herbicidal safening, greenhouse, visual injury: barley; conditions: applied alone
Procedure: as §1, §2, §3, §4, §5, §6, §7, §8

[6] = test system: bird's-eye speedwell (Veronica persica L; VERPE); test: Postemergence herbicidal activity, greenhouse, visual injury: bird's-eye speedwell; design: key: visual injury, 0–100%: 0 = no injury, 100 = complete kill; conditions: applied alone
Procedure: as §1, §2, §3, §4, §5, §6, §7, §8

[7] = test system: chickweed (Stellaria media L; STEME); test: Postemergence herbicidal activity, greenhouse, visual injury: chickweed; design: key: visual injury, 0–100%: 0 = no injury, 100 = complete kill; conditions: applied alone
Procedure: as §1, §2, §3, §4, §5, §6, §7, §8

[8] = test system: wheat (Triticum aestivum L; TRZAS); test: Postemergence herbicidal safening, greenhouse, visual injury: wheat; conditions: applied alone
Procedure: as §1, §2, §3, §4, §5, §6, §7, §8

[9] = test system: wild buckwheat (Polygonum convolvulus L; POLCO); test: Postemergence herbicidal activity, greenhouse, visual injury: wild buckwheat; conditions: applied alone
Procedure: as §1, §2, §3, §4, §5, §6, §7, §8

[10] = test system: Russian thistle (Salsola iberica L; SASKR); test: Postemergence herbicidal activity, greenhouse, visual injury: Russian thistle; design: key: visual injury, 0–100%: 0 = no injury, 100 = complete kill; conditions: applied alone
Procedure: as §1, §2, §3, §4, §5, §6, §7, §8

Cc1ccc(NC(=O)NC(C)(C)c2ccccc2)cc1 [Daimuron]
PAPRH Ob (Observed values) ([1]; safener 4.4 g/ha alone): 0 | PAPRH Ob (Observed values) ([1]; safener 8.8 g/ha alone): 0 | PAPRH Ob (Observed values) ([1]; safener 17.5 g/ha alone): 0 | PAPRH Ob (Observed values) ([1]; safener 35 g/ha alone): 0 | LAMPU Ob (Observed values) ([2]; safener 4.4 g/ha alone): 0 | LAMPU Ob (Observed values) ([2]; safener 8.8 g/ha alone): 0 | LAMPU Ob (Observed values) ([2]; safener 17.5 g/ha alone): 0 | LAMPU Ob (Observed values) ([2]; safener 35 g/ha alone): 0

O=C(O)c1nc(C(Cl)(Cl)Cl)n(-c2ccc(Cl)cc2Cl)n1 [Fenchlorazole]
PAPRH Ob (Observed values) ([1]; safener 4.4 g/ha alone): 0 | PAPRH Ob (Observed values) ([1]; safener 8.8 g/ha alone): 0 | PAPRH Ob (Observed values) ([1]; safener 17.5 g/ha alone): 0 | PAPRH Ob (Observed values) ([1]; safener 35 g/ha alone): 0 | LAMPU Ob (Observed values) ([2]; safener 4.4 g/ha alone): 0 | LAMPU Ob (Observed values) ([2]; safener 8.8 g/ha alone): 0 | LAMPU Ob (Observed values) ([2]; safener 17.5 g/ha alone): 0 | LAMPU Ob (Observed values) ([2]; safener 35 g/ha alone): 0

FC(F)(F)C(=NOCC1OCCO1)c1ccc(Cl)cc1 [Fluxofenim]
GALAP Ob ([3]; 17.5 g/ha): 0 | GALAP Ob ([3]; 35 g/ha): 0 | GALAP Ob ([3]; 70 g/ha): 0 | GALAP Ob ([3]; 140 g/ha): 0 | VIOTR Ob ([4]; 17.5 g/ha): 0 | VIOTR Ob ([4]; 35 g/ha): 0 | VIOTR Ob ([4]; 70 g/ha): 0 | VIOTR Ob ([4]; 140 g/ha): 0 | HORVS Ob ([5]; 17.5 g/ha): 0% | HORVS Ob ([5]; 35 g/ha): 0% | HORVS Ob ([5]; 70 g/ha): 0% | HORVS Ob ([5]; 140 g/ha): 0% | VERPE Ob ([6]; 17.5 g/ha): 0 | VERPE Ob ([6]; 35 g/ha): 0 | VERPE Ob ([6]; 70 g/ha): 0 | VERPE Ob ([6]; 140 g/ha): 0 | STEME Ob ([7]; 17.5 g/ha): 0 | STEME Ob ([7]; 35 g/ha): 0 | STEME Ob ([7]; 70 g/ha): 0 | STEME Ob ([7]; 140 g/ha): 0 | PAPRH Ob ([1]; 17.5 g/ha): 0 | PAPRH Ob ([1]; 35 g/ha): 0 | PAPRH Ob ([1]; 70 g/ha): 0 | PAPRH Ob ([1]; 140 g/ha): 0 | TRZAS Ob ([8]; 17.5 g/ha): 0% | TRZAS Ob ([8]; 35 g/ha): 0% | TRZAS Ob ([8]; 70 g/ha): 0% | TRZAS Ob ([8]; 140 g/ha): 0% | POLCO Ob ([9]; 17.5 g/ha): 0 | POLCO Ob ([9]; 35 g/ha): 0 | POLCO Ob ([9]; 70 g/ha): 0 | POLCO Ob ([9]; 140 g/ha): 0 | SASKR Ob ([10]; 17.5 g/ha): 0 | SASKR Ob ([10]; 35 g/ha): 0 | SASKR Ob ([10]; 70 g/ha): 0 | SASKR Ob ([10]; 140 g/ha): 0

O=C1OC(=O)c2cccc3cccc1c23 [Naphthalic anhydride]
GALAP Ob ([3]; 17.5 g/ha): 0 | GALAP Ob ([3]; 35 g/ha): 0 | GALAP Ob ([3]; 70 g/ha): 0 | GALAP Ob ([3]; 140 g/ha): 0 | VIOTR Ob ([4]; 17.5 g/ha): 0 | VIOTR Ob ([4]; 35 g/ha): 0 | VIOTR Ob ([4]; 70 g/ha): 0 | VIOTR Ob ([4]; 140 g/ha): 0 | VERPE Ob ([6]; 17.5 g/ha): 0 | VERPE Ob ([6]; 35 g/ha): 0 | VERPE Ob ([6]; 70 g/ha): 0 | VERPE Ob ([6]; 140 g/ha): 0 | STEME Ob ([7]; 17.5 g/ha): 0 | STEME Ob ([7]; 35 g/ha): 0 | STEME Ob ([7]; 70 g/ha): 0 | STEME Ob ([7]; 140 g/ha): 0 | PAPRH Ob ([1]; 17.5 g/ha): 0 | PAPRH Ob ([1]; 35 g/ha): 0 | PAPRH Ob ([1]; 70 g/ha): 0 | PAPRH Ob ([1]; 140 g/ha): 0 | POLCO Ob ([9]; 17.5 g/ha): 0 | POLCO Ob ([9]; 35 g/ha): 0 | POLCO Ob ([9]; 70 g/ha): 0 | POLCO Ob ([9]; 140 g/ha): 0 | SASKR Ob ([10]; 17.5 g/ha): 0 | SASKR Ob ([10]; 35 g/ha): 0 | SASKR Ob ([10]; 70 g/ha): 0 | SASKR Ob ([10]; 140 g/ha): 0
